This passage reports Activity and Inhibition results from ChEMBL document CHEMBL1144788, “Insect growth regulatory effects of linear diterpenoids and derivatives from Baccharis thymifolia” (2008).

As a reminder, the Inhibition is the percentage by which the read-out fell short of the control.

The subject of test [1] is Tenebrio molitor. Description: Growth inhibition of topically dosed Tenebrio molitor larvae assessed as duration of pupal instar stage at 120 ug measured every 24 hrs for 60 days. The test is classed as functional.
For test [2], the system named is Tenebrio molitor. The test is described as follows: Growth inhibition of topically dosed Tenebrio molitor larvae assessed as imaginal molt inhibition at 120 ug. The format is functional.

On to `COC(=O)/C(=C/CC/C(=C\CCc1ccoc1)C(=O)OC)CCC=C(C)C`, for which the Activity in the test with Tenebrio molitor [1] was found to be 7.4 days. In the test on Tenebrio molitor [2], the Inhibition is 34.3%.

Turning to `COC(=O)/C(=C/CCc1ccoc1)CC/C=C(\CC[C@@H](O)C(C)(C)O)C(=O)OC`, in the test with Tenebrio molitor [1], the Activity worked out at 12 days.

As for `CC(C)=CCC/C(=C\CC/C(=C\CCc1ccoc1)CO)CO`, the Activity in the test with Tenebrio molitor [1] stood at 5.3 days.

As to `COC(=O)/C(=C/CCc1ccoc1)CC/C=C(\CC[C@H](O)C(C)(C)O)C(=O)OC`, the Activity with Tenebrio molitor [1] turned out to be 12.1 days.

Consider `COC(=O)/C(=C/CCc1ccoc1)CC/C=C1\CC[C@H](C(C)(C)O)OC1=O`, for which the Activity in the test on Tenebrio molitor [1] was found to be 11.2 days.

Consider `COC(=O)/C(=C\CC/C(=C\CCc1ccoc1)C(=O)OC)CC[C@H](O)C(C)(C)O`, for which, in the test on Tenebrio molitor [1], the Activity came to 10 days.

As to `COC(=O)/C(=C\CC/C(=C\CCc1ccoc1)C(=O)OC)CCC=C(C)C`, in the test on Tenebrio molitor [1], the Activity was 6 days.

In the case of `CC(C)=CCC[C@@](O)(CO)[C@@H]1CC/C(=C\CCc2ccoc2)CO1`, the Activity with Tenebrio molitor [1] worked out at 12 days.

Consider `CC(C)=CCC[C@@]1(CO)OC1CC[C@@]1(CO)OC1CCc1ccoc1` (single isomer, unassigned), for which the Activity in the test with Tenebrio molitor [1] turned out to be 12.7 days.

In the case of `CC(C)=CCC/C(=C\CC/C(=C\CCC1=CCOC1=O)C(=O)O)C(=O)O`, in the test on Tenebrio molitor [1], the Activity is 5.09 days. Moreover, the Inhibition with Tenebrio molitor [2] was found to be 24.1%.

Regarding `CC(C)=CCC[C@](O)(CO)[C@H]1CC[C@@]2(CO1)OC2CCc1ccoc1` (single isomer, unassigned), in the test on Tenebrio molitor [1], the Activity came out at 9.9 days. For the same molecule, the Inhibition in the test with Tenebrio molitor [2] is reported as 30.8%.

As to `CC(C)=CCC/C(=C/CC/C(=C\CCc1ccoc1)C(=O)O)C(=O)O`, the Activity in the test on Tenebrio molitor [1] amounted to 4.7 days.

For `COC(=O)/C(=C\CC/C(=C\CCc1ccoc1)C(=O)OC)CC[C@@H](O)C(C)(C)O`, the Activity in the test on Tenebrio molitor [1] turned out to be 11.2 days.

Take `CC(C)=CCC[C@](O)(CO)[C@H]1CC/C(=C\CCc2ccoc2)CO1`: the Activity in the test on Tenebrio molitor [1] was determined as 16.2 days. Besides, in the test with Tenebrio molitor [2], the Inhibition is recorded as 14.4%.

As to `CC(C)=CCC/C(=C\CC/C(=C\CCc1ccoc1)C(=O)O)C(=O)O`, in the test on Tenebrio molitor [1], the Activity was determined as 10.7 days. In addition, the Inhibition in the test with Tenebrio molitor [2] was 33.6%.

On to `CC(C)=CCC[C@@](O)(CO)[C@@H]1CC[C@]2(CO1)OC2CCc1ccoc1` (single isomer, unassigned), for which the Activity with Tenebrio molitor [1] was 10.6 days.
